Measurements taken from patent US10278954B2, “Method of treating a CNS disorder using a water-soluble histone deacetylase inhibitor” (priority 2016, dated 2019).

Experiments:
synaptophysin = assay: Synaptophysin ELISA of protein isolated from rat brain; assay type: in vivo; settings: 21 days after infusion; 1 way ANOVA p>0.05
Procedure: A) Immunofluorescent microscopy of fixed rat brain for neurons (NeuN) and glia (GFAP) 21 days after acute striatal infusion of 5 μl of either aCSF (control), F127-aCSF or F127-PAN. B) Synaptophysin ELISA of protein isolated from rat brain 21 days after infusion comparing F127-aCSF, F127-PAN and Panobinostat in DMSO against aCSF and untreated controls. […] (1 way ANOVA p>0.05).

SF8628 glioma cell line = assay: MTT assay, SF8628; assay type: cell-based, human
Procedure: (§1) Two independent glioma cell lines (A) SF7761 and (B) SF8628 were dosed with sodium valproate for 72 h, then subjected to an MTT assay to assess the effect of the drug on proliferation of glioma cells. Results are expressed as a % relative to untreated control. […] Two glioma cell lines (A) SF7761 and (B) SF8628 were dosed with sodium valproate for 72 h, followed by 6 h of carboplatin, after which, the drug was washed out and given fresh sodium valproate. Proliferation was assessed by MTT assay, and results expressed as a % relative to the untreated control cells.

[1] = system: normal hippocampal neuronal and glial cells; assay: Toxicity in normal hippocampal cultures (B3 tubulin, GFAP staining); assay type: cell-based; settings: 6 h dosing, assayed 72 h after
Procedure: Normal hippocampal cells were plated onto coverslips and grown for 72 h prior to dosing with sodium valproate to assess the toxicity of the drug against normal neuronal and glial cells. Cells were drugged with sodium valproate for 6 h, after which time the drug was washed off and fresh media added. Cells were further incubated for 72 h prior to fixing and staining with B3 tubulin (neuronal marker) and GFAP (glial cell marker) to determine to the toxicity of sodium valproate.

SF7761 glioma cell line = assay: MTT assay, SF7761; assay type: cell-based, human
Procedure: as §1

glioma cell line = assay: MTT assay, 6 h sequential dosing on two consecutive days; assay type: cell-based, human
Procedure: One glioma cell line thus far has been tested with (A) 6 h dosing of VPA repeated one two consecutive days, followed by assessment of proliferation by MTT.

[2] = pre-conditioning with sodium valproate prior to carboplatin
[3] = sodium valproate 72 h, then 6 h carboplatin

synaptophysin concentration against aCSF and untreated controls (synaptophysin)	Structure (SMILES)	cytotoxicity (proliferation, % relative to untreated control) (SF8628 glioma cell line; 72 h dosing)	combination index (CI) (SF8628 glioma cell line; [2])	effect of pre-dosing on cytotoxicity of carboplatin (SF8628 glioma cell line; [3])	glial toxicity (GFAP) ([1]; 20 mM)	neuronal toxicity (B3 tubulin) [1]	cytotoxicity (proliferation, % relative to untreated control) (SF7761 glioma cell line; 72 h dosing)	combination index (CI) (SF7761 glioma cell line; [2])	effect of pre-dosing on cytotoxicity of carboplatin (SF7761 glioma cell line; [3])	cell viability, % relative to control (glioma cell line; 6 h dosing on two consecutive days)	cell viability, combined dosing with carboplatin (glioma cell line; carboplatin and sodium valproate 6 h on two consecutive days)
No significant difference detected	Cc1[nH]c2ccccc2c1CCNCc1ccc(/C=C/C(=O)NO)cc1 [Panobinostat in DMSO, panobinostat]										
	CCCC(CCC)C(=O)[O-].[Na+] [sodium valproate]	causes cytotoxicity to glioma cells in a dose dependent manner	below 1	potentiates the cytotoxicity of carboplatin	Some toxicity	minimal neuronal toxicity	causes cytotoxicity to glioma cells in a dose dependent manner	below 1	potentiates the cytotoxicity of carboplatin	dose dependent decrease in cell viability	greater decrease in cell viability compared with carboplatin alone
